Data on two compounds can be found in patent publication US6057450A, “Derivatives of pyroglutaminic acid preparation process and applications” (Totiam, S.L., priority 1994, dated 2000).

One series concerns Swiss mice. The series can be described thus: single-dose intraperitoneal toxicity in mice. As to conditions: i.p. single dose; 236 (Cl) 800 mcg/Kg, 278 (Ac) 4.2 mg/Kg, 320 (Ac) 4.8 mg/Kg, respectively.
For a further series, the system named is human lymphocytes. Nature of the series: in vitro non-specific lymphoproliferative response (RLP-I) to PHA, human lymphocyte cultures. The format is cell-based. How it is done:
The "in vitro" lymphocyte response has been assessed in samples of circulating and peripheral venous blood from asymptomatic blood donor adults of both sexes. In general, the lymphocyte cultures include in each case six experimental models called witnesses, and incorporate progressive doses between 0.25-6.0 units (20-500 ng) of the BRM-BLAS compounds and PHA. The RLP-I of each one has been morphologically determined and is expressed in absolute values of lymphoblasts/10,000.
Systematically, in all the cases it has been tabulated the RLP-I to the PHA, basal, of the PHA models; to the PHA+BRM-BLAS, of the "witness" models and the maximum individual response of the witness models (RMC), in each case.

Series [1] deals with circulating peripheral blood lymphocytes. The series can be described thus: in vivo lymphocyte kinetics / response in asymptomatic rabbits. Also on record: species or system New Zealand's albino, giant rabbits. The source says: (§1) The pharmacodynamic study to assess the leuko-lymphocyte kinetics has been carried out in New Zealand's albino, giant, female, adult, asymptomatic (healthy) rabbits. The blood samples with EDTA (ethylene-diamino-tetraAcetic acid), non-coagulable, for the periodical weekly controls, have been obtained by aseptic puncture from the marginal vein of the outer ear. The count and the differential cytologic survey of the white series has been routinely performed in a "Coulter" (Coulter Cientifica, S.A., STKs model) differential analyzer, within the two hours following the extraction.
Hereinafter, there is a summary of the most significant results of the preclinical protocols which include different experimental conditions, different BRM-BLAS products and doses which vary in vary of their concentration of the product, frequency and number. […]
This study comprises three concatenated experimental situations. The first one is focused on the vicissitudes of the leuko-lymphocyte kinetics occurred during a pause, "first" moment, that takes place months after several doses, mainly of BRM-BLAS 236 (Cl) compounds and includes 30 individual assessments (6 of the group) days 0 to 39. The second "second" moment, is centered on the successive changes occurred after the administration on the 39th day of an intravenous dose of 8 u/Kg (0.6 mcg/Kg) of the BRM-BLAS 278 (Ac) compounds and includes a total of 25 individual assessments (5 of the group), days 43rd to 68th. The third one, moments "third" to "seventh", analyzes the changes induced after the intravenous administration on the 68th day of 22 u/Kg (1.8 mcg/Kg) of BRM-BLAS 320 (Ac) compounds and includes […] (6 of the group×5 times), days 75th to 287th of the study. The assessment prior to the last dose, the lymphocyte average of which is the lowest of the group during the study, has been selected as the common baseline (100%) for reference of the comparative analysis between the assessments.

The subject of series [2] is circulating peripheral blood leukocytes. The series can be described thus: in vivo leukocyte kinetics / response in asymptomatic rabbits. Also on record: species or system New Zealand's albino, giant rabbits. As to conditions: progressive i.v. doses.
Text: as §1
Hereinafter, there is a summary of the most significant results of the preclinical protocols which include different experimental conditions, different BRM-BLAS products and doses which vary in vary of their concentration of the product, frequency and number.
The leuko-lymphocyte mean values of the group run parallelly during the study, in general above the respective basal values before the treatment to which they return in the last two assessments. They reach the higher ones 7, 16 and 20 days after the first, second and third dose, FIG. 12, FIG. 13 and Table VIII (assessments: 3, 8 and 13).
A total number of 225 individual assessments and 45 of the group assessments have been performed, grouped in four evolutive periods moments. The "first" one includes the 40 individual assessments (8 of the group) after the two first doses, days 0 to 43rd; the "second", the 85 (17 of the group) after the third, fourth and fifth doses, days 46th to 147th; the "third", the first 50 (10 of the group) after the sixth, days 153rd to 213th, and the "fourth", the last 50 (10 of the group), days 220th to 282nd, respectively. The assessment of the group prior to the third dose (43rd day), the lymphocyte mean of which has been the lowest during the survey, has been taken as the natural reference baseline for the comparative analysis of punctual and grouped data.
This trail is subsequent to the protocol previously described and corresponds to the "fifth" moment of the global study, FIG. 14 and FIG. 15.
After the subcutaneous administration of a dose of 30 u/Kg (2.1 mcg/Kg) of the BRM-BLAS 278 (Cl) compounds 137 days after the sixth dose of the BRM-BLAS 320 (Ac) compounds, in the presence of high figures of the lymphocyte mean of the group, at the "fourth" moment, such figures were specifically exceeded by the 4th and 5th punctual weekly assessments of the "fifth" moment, 24th (184%) and 31st (180%) days, respectively, FIG. 14. Globally, 28% of the assessment exceed basal values by one or two standard deviations; 57% in three, and the difference is statistically in all of them. The resulting mean of the data gathered for the "fifth" moment with a 158% of the basal values, exceed those of the four previous moments, and the difference is statistically significant compared with those of the "first", "second" and "third", and exceeds that of the "first" in more than one standard deviation, FIG. 15 and (Table IX). […]

A further series concerns patients with cancer. As to conditions: patients with favourable prognosis factors; cited from earlier work.
Setting [3] is: Table V, PHA + BRM-BLAS (B) versus PHA (A).
Where [4] appears, read: Table VI, intragroup individual analysis.
The mark [5] stands for this setting: progressive i.v. doses, "second" moment.
[6] abbreviates: progressive i.v. doses, grouped results.
Setting [7] is: single i.v. high dose 22 u/Kg (1.8 mcg/Kg).

For the compound `CC(=O)NC1(C[n+]2ccccc2)CC(C(=O)O)N(C(C)=O)C1=O` (centres unmarked) [BRM-BLAS 320 (Ac), 1-acetyl-4-acetylamino-4-(1-pyridiniomethyl) pyroglutamic acid acetate], in the series on Swiss mice, the “tolerance / toxicity, single dose” value is given as “perfectly tolerated without evidences of toxicity”. For the same compound, in the series with human lymphocytes (setting [3]), the “RLP-I B < A, number of witness models” value was 17 Num; the “RLP-I B < A, percentage of witness models” value was 21%; the “RLP-I B > A, number of witness models” value is 65 Num; the “RLP-I B > A, percentage of witness models” value turned out to be 70%. Besides, in the series on human lymphocytes (setting [4]), the “number of cases with RLP-I B > A in 33-50% of the witness models” value was determined as 14 Num, the “number of cases with RLP-I B > A in 67% of the witness models” value is recorded as 9 Num, the “number of cases with RLP-I B > A in 100% of the witness models” value is recorded as 5 Num and the “percentage of cases with RLP-I B > A in 33-50% of the witness models” value amounted to 100%. For the same compound, in the series on human lymphocytes (setting [4]), the “percentage of cases with RLP-I B > A in 67% of the witness models” value is listed as 64% and the “percentage of cases with RLP-I B > A in 100% of the witness models” value worked out at 36%. For the same compound, in series [1] (progressive i.v. doses), the “animals with individual lymphocyte mean "fourth" versus "first" moment higher by three standard deviations” value is 60% and the “animals with individual lymphocyte mean "fourth" versus "first" moment higher by two standard deviations” value was 40%. In series [1] (progressive i.v. doses 5-30 units/Kg (0.4-2.4 mcg/Kg)), the “lymphocyte response” value was “selective and significant increase in the number of lymphocytes that starts after the third dose and reaches its maximum level after the sixth”. In addition, in series [1] (setting [5]), the “assessments with lymphocyte mean exceeding one standard deviation, "second" moment” value worked out at 41% and the “assessments with statistically significant lymphocyte difference, "second" moment” value is 43%. The “highest average lymphocyte value versus basal” value in series [1] (progressive i.v. doses, day 241st of the study, "fourth" moment) was found to be 178%. The “assessments exceeding mean lymphocyte basal values by more than one, two or three standard deviations, "third" moment” value in series [1] (progressive i.v. doses, days 153rd to 213th) came to 80%. For the same compound, in series [1] (progressive i.v. doses, days 220th to 282nd), the “assessments exceeding mean lymphocyte basal values by more than one, two or three standard deviations, "fourth" moment” value is listed as 100%. Also, in series [1] (setting [6]), the “grouped lymphocyte mean versus baseline, "first" period” value was determined as 110%; the “grouped lymphocyte mean versus baseline, "fourth" period” value amounted to 152%; the “grouped lymphocyte mean versus baseline, "second" period” value was 120%; the “grouped lymphocyte mean versus baseline, "third" period” value was found to be 131%. Also, the “cases with individual lymphocyte mean at "seventh" exceeding "first" moment by one, two or three standard deviations” value in series [1] (single i.v. high dose 22 u/Kg) stood at 80%. For the same compound, in series [1] (setting [7]), the “lymphocyte mean versus baseline from the 53rd day” value was “surpasses the baseline by two or three standard deviations from the 53rd day” and the “onset of lymphocyte increase after the dose” value is on record as “twenty days after the high dose”. For the same compound, the “highest lymphocyte mean versus basal” value in series [1] (single i.v. high dose 22 u/Kg (1.8 mcg/Kg), 88th and 202nd days after dose) amounted to 212%. Also, the “duration of statistically significant lymphocyte increase” value in series [1] (single i.v. high dose 22 u/Kg (1.8 mcg/Kg), from 53rd day) is “statistically significant uninterruptedly, until the 213th day”. For the same compound, the “selectivity for lymphocytes versus granulocytes and monocytes” value in series [1] (single i.v. high dose 22 u/Kg, FIG. 18 and FIG. 19) was “sustained and selective immunomodulating activity or effect of the BRM-BLAS 320 (Ac) compounds on subpopulations of lymphocytes without detriment to the number of granulocytes and monocytes”. Further, in series [2], the “animals with leukocyte mean at "fourth" exceeding "first" moment by two or three standard deviations” value is 40%, the “assessments with leukocyte mean exceeding basal by one standard deviation” value is given as 4.4% and the “leukocyte punctual assessments versus basal” value is “the difference is never became statistically significant”. In addition, the “leukocyte mean versus basal, 227th day” value in series [2] (227th day) came to 129%. Further, the “leukocyte mean versus basal, 241st day” value in series [2] (241st day) turned out to be 136%.
For the compound IFN-α, the “effect on tumor metastases” value in the series on patients with cancer is listed as “can cause the regression of tumor metastases”.
